Measurements published in PubChem BioAssay (NCI).
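A five-concentration, 48-hour dose response in 96-well plates underlies each endpoint, interpolated linearly between surrounding concentrations. The concentration for 50% growth inhibition is given as GI50. The concentration for full growth arrest is given as TGI.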

Tests used:
Test in all cases: DTP human tumour cell line panel, 48 h
[1] = system: 786-0 renal
[2] = system: A498 renal
[3] = system: A549 NSCLC
[4] = system: ACHN renal
[5] = system: BT-549 breast
[6] = system: CAKI-1 renal
[7] = system: CCRF-CEM leukemia
[8] = system: COLO 205 colon
[9] = system: DU-145 prostate
[10] = system: EKVX NSCLC
[11] = system: HCT-116 colon
[12] = system: HCT-15 colon
[13] = system: HL-60(TB) leukemia
[14] = system: HOP-62 NSCLC
[15] = system: HOP-92 NSCLC
[16] = system: HS 578T breast
[17] = system: HT29 colon
[18] = system: IGROV1 ovarian
[19] = system: K-562 leukemia
[20] = system: KM12 colon
[21] = system: LOX IMVI melanoma
[22] = system: M14 melanoma
[23] = system: MALME-3M melanoma
[24] = system: MCF7 breast
[25] = system: MDA-MB-231 breast
[26] = system: MDA-MB-435
[27] = system: MOLT-4 leukemia
[28] = system: NCI-H23 lung
[29] = system: NCI-H460 lung
[30] = system: NCI-H522 lung
[31] = system: NCI/ADR-RES ovarian
[32] = system: OVCAR-3 ovarian
[33] = system: OVCAR-4 ovarian
[34] = system: OVCAR-5 ovarian
[35] = system: OVCAR-8 ovarian
[36] = system: PC-3 prostate
[37] = system: RPMI-8226 leukemia
[38] = system: RXF 393 renal
[39] = system: SF-268 CNS
[40] = system: SF-295 CNS
[41] = system: SF-539 CNS
[42] = system: SK-MEL-2 melanoma
[43] = system: SK-MEL-28 melanoma
[44] = system: SK-MEL-5 melanoma
[45] = system: SK-OV-3 ovarian
[46] = system: SN12C renal
[47] = system: SNB-19 CNS
[48] = system: SNB-75 CNS
[49] = system: SR leukemia
[50] = system: SW-620 colon
[51] = system: T-47D breast
[52] = system: TK-10 renal
[53] = system: U251 CNS
[54] = system: UACC-257 melanoma
[55] = system: UACC-62 melanoma
[56] = system: UO-31 renal

Structure (SMILES): COc1cc2c3c(n(CCCN=[N+]=[N-])c(=O)c2cc1OC)-c1ccc([N+](=O)[O-])cc1C3=O
- GI50 [1]: 50.3 µM
- TGI [1]: > 100 µM
- GI50 [2]: 96.7 µM
- TGI [2]: > 100 µM
- GI50 [3]: > 100 µM
- TGI [3]: > 100 µM
- GI50 [4]: > 100 µM
- TGI [4]: > 100 µM
- GI50 [5]: 14.4 µM
- TGI [5]: 98.8 µM
- GI50 [6]: > 100 µM
- TGI [6]: > 100 µM
- GI50 [7]: 38.7 µM
- TGI [7]: > 100 µM
- GI50 [8]: > 100 µM
- TGI [8]: > 100 µM
- GI50 [9]: 34.4 µM
- TGI [9]: > 100 µM
- GI50 [10]: 40.1 µM
- TGI [10]: > 100 µM
- GI50 [11]: > 100 µM
- TGI [11]: > 100 µM
- GI50 [12]: > 100 µM
- TGI [12]: > 100 µM
- GI50 [13]: > 100 µM
- TGI [13]: > 100 µM
- GI50 [14]: 89.7 µM
- TGI [14]: > 100 µM
- GI50 [15]: 29.8 µM
- TGI [15]: > 100 µM
- GI50 [16]: 48 µM
- TGI [16]: > 100 µM
- GI50 [17]: > 100 µM
- TGI [17]: > 100 µM
- GI50 [18]: 0.215 µM
- TGI [18]: 35 µM
- GI50 [19]: > 100 µM
- TGI [19]: > 100 µM
- GI50 [20]: > 100 µM
- TGI [20]: > 100 µM
- GI50 [21]: 61 µM
- TGI [21]: > 100 µM
- GI50 [22]: > 100 µM
- TGI [22]: > 100 µM
- GI50 [23]: > 100 µM
- TGI [23]: > 100 µM
- GI50 [24]: 27.9 µM
- TGI [24]: > 100 µM
- GI50 [25]: 20.3 µM
- TGI [25]: > 100 µM
- GI50 [26]: > 100 µM
- TGI [26]: > 100 µM
- GI50 [27]: 63.3 µM
- TGI [27]: > 100 µM
- GI50 [28]: 91.1 µM
- TGI [28]: > 100 µM
- GI50 [29]: 49.5 µM
- TGI [29]: > 100 µM
- GI50 [30]: 16.8 µM
- TGI [30]: > 100 µM
- GI50 [31]: 80 µM
- TGI [31]: > 100 µM
- GI50 [32]: > 100 µM
- TGI [32]: > 100 µM
- GI50 [33]: > 100 µM
- TGI [33]: > 100 µM
- GI50 [34]: > 100 µM
- TGI [34]: > 100 µM
- GI50 [35]: > 100 µM
- TGI [35]: > 100 µM
- GI50 [36]: > 100 µM
- TGI [36]: > 100 µM
- GI50 [37]: 90.7 µM
- TGI [37]: > 100 µM
- GI50 [38]: > 100 µM
- TGI [38]: > 100 µM
- GI50 [39]: 33.4 µM
- TGI [39]: > 100 µM
- GI50 [40]: > 100 µM
- TGI [40]: > 100 µM
- GI50 [41]: 38.9 µM
- TGI [41]: > 100 µM
- GI50 [42]: 36.5 µM
- TGI [42]: > 100 µM
- GI50 [43]: > 100 µM
- TGI [43]: > 100 µM
- GI50 [44]: > 100 µM
- TGI [44]: > 100 µM
- GI50 [45]: > 100 µM
- TGI [45]: > 100 µM
- GI50 [46]: > 100 µM
- TGI [46]: > 100 µM
- GI50 [47]: > 100 µM
- TGI [47]: > 100 µM
- GI50 [48]: 20.9 µM
- TGI [48]: 66.9 µM
- GI50 [49]: 4.38 µM
- TGI [49]: 22.9 µM
- GI50 [50]: 55.3 µM
- TGI [50]: > 100 µM
- GI50 [51]: 50.1 µM
- TGI [51]: > 100 µM
- GI50 [52]: > 100 µM
- TGI [52]: > 100 µM
- GI50 [53]: > 100 µM
- TGI [53]: > 100 µM
- GI50 [54]: > 100 µM
- TGI [54]: > 100 µM
- GI50 [55]: 68.7 µM
- TGI [55]: > 100 µM
- GI50 [56]: 20 µM
- TGI [56]: > 100 µM
